For five compounds, AC50, EC50 and IC50 results are on record in ChEMBL document CHEMBL1201862, “PubChem BioAssay data set” (2004).

SMILES strings stand for the structures. Calls of active or inactive are those of the source. Bounds are passed on as bounds.

In one test the target is DNA topoisomerase (Yersinia pestis, UniProt A0A2S9PM60). Briefly: Y. pestis Topo-I inhibitors, cleavage product readout, dose response, biochemical, cherry-pick (AID 588525).
The nature of test [1]: NIH-3T3 fibroblast cytotoxicity, dose response, cytotoxicity control, cell-based, fluorescence, Alamar Blue, secondary assay (AID 2327).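 Also: NIH-3T3 mouse fibroblasts cultured with fluconazole at 8 µg/mL.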 The format is functional.
Test [2] in a line: inhibitors of firefly luciferase expression or activity, dose response, H4 neuroglioma cells, luminescence (AID 1990). The format is functional, cell-based.
In test [3] the test system is Streptococcus sp. 'group A'. In words: growth inhibition of control SK(-) GAS strain, dose response, counter-screen for streptokinase expression inhibitor project, luminescence, kanamycin, BacTiterGlo, confirmation (AID 1900). It is filed as functional, organism-based. For orientation: Counterscreens check selectivity or assay interference.
The nature of test [4]: Luminescence Cell-Based Dose Response HTS to Identify Inhibitors of 5'UTR Stem-Loop Driven Prion Protein mRNA Translation in H4 Neuroglioblastoma Cells. [Related pubchem assays: 1827 (Project Summary), 1813 (Primary HTS)]. It is filed as functional.
A short description of test [5]: inhibitors of SNCA 5'UTR-driven reporter translation, confirmation, H4 neuroglioma cells, luminescence (AID 1988). The format is functional, cell-based.
Another test has as its target T1, Streptokinase A (Streptococcus pyogenes serotype M1, UniProt P10520).
T1 sequence (P10520 whole entry): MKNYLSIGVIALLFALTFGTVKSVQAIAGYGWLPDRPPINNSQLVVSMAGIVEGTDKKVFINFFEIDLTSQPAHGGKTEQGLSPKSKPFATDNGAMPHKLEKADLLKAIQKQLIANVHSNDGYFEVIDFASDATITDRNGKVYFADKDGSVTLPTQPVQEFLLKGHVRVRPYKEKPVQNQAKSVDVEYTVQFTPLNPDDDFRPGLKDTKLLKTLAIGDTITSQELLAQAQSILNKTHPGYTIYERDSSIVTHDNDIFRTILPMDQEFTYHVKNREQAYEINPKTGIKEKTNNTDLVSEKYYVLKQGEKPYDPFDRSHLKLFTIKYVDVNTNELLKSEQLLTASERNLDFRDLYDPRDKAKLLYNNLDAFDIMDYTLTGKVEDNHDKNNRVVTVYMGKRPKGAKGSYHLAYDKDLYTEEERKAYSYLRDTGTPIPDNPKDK
In words: S. pyogenes streptokinase expression inhibitors, potency, dose response, plasminogen activation absorbance, OD405 (AID 1914).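 Also: secreted streptokinase activity via plasminogen activation per viability signal from cell pellet.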 The format is functional, Streptococcus pyogenes M1 GAS.

Test [6] can be described thus: C. albicans growth with fluconazole, confirmation, fluorescence, retest (AID 2467). It is filed as functional, cell-based.
Test [7] addresses Serine/threonine-protein phosphatase (Candida dubliniensis (strain CD36 / CBS 7987 / NCPF 3949 / NRRLY-17841) (Yeast), UniProt B9W6M3). Briefly: calcineurin pathway inhibitors in yeast reporter, dose response, S. cerevisiae, CDRE-lacZ, luminescence, secondary (AID 2388).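 Also: yeast reporter cells carrying a calcineurin-responsive lacZ construct stimulated with calcium chloride; luminescent beta-galactosidase reporter signal in whole cells rather than isolated phosphatase activity; potency for inhibition where a drop in reporter signal means calcineurin blockade.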 The format is functional, cell-based.
Another test relates to Streptococcus. In words: Group A Streptococcus viability loss, dose response, counter-screen for streptokinase expression inhibitor project, luminescence, BacTiterGlo (AID 1915).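 Also: potency for reduction of bacterial viability or growth.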 It is filed as functional, organism-based.
Test [8] addresses ATP-dependent molecular chaperone HSP82 (Candida albicans (strain WO-1) (Yeast), UniProt C4YTQ8). In words: loss of DOC-induced GRE-beta-galactosidase reporter signal, dose response, Hsp90 inhibitor project, S. cerevisiae, luminescence (AID 2400).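 Also: beta-galactosidase luminescence from glucocorticoid response element reporter as proxy for Hsp90 function; inhibitor potency where signal loss means Hsp90 inhibition.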 It is filed as functional, cell-based.
Test [9] is described as follows: control 3'UTR Renilla luciferase suppression, dose response, counter-screen for Shn3 inhibitor project, cell-based, Clone20-Shn3RL, cherry-picked (AID 624133). The format is functional.
The next test addresses T2, Galanin receptor type 3 (Homo sapiens, UniProt O60755).
T2 sequence (O60755 whole entry): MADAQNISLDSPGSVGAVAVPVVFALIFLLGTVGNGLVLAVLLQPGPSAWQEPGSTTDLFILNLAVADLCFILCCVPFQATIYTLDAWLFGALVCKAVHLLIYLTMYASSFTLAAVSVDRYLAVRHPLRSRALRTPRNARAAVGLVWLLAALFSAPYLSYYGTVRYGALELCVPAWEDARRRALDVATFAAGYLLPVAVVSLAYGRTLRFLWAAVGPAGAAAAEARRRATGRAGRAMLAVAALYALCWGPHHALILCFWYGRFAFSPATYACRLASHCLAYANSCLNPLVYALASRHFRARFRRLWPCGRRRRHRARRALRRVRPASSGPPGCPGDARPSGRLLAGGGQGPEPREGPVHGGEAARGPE
Briefly: Fluorescence-based cell-based primary high throughput dose response assay to identify antagonists of the Galanin Receptor 3 (GalR3). It is filed as functional.

The nature of a further test: cells. It is filed as functional, cell-based. To be noted: HEK-CNG.
The target in test [10] is T3, COUP transcription factor 2 (Homo sapiens, UniProt P24468).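 Also: HEK293 cells transiently cotransfected with COUP-TFII expression vector and reporter; luciferase reporter luminescence driven by COUP-TFII from the pX2-168 reporter plasmid.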
T3 sequence (P24468 whole entry): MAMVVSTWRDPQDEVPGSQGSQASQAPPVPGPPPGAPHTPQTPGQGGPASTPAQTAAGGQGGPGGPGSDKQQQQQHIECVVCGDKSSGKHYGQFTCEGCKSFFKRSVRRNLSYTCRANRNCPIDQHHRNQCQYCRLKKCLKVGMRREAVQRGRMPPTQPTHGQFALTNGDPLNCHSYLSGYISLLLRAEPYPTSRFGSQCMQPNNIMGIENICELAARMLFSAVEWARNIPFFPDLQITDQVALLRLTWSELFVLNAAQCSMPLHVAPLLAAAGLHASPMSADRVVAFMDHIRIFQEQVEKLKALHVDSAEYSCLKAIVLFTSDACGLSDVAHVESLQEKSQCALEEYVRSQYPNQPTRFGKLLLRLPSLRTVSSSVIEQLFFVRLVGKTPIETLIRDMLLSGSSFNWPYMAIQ
In words: Luminescence-based cell-based high throughput dose response assay to identify inhibitors of COUP-TFII (NR2F2). It is filed as functional.

Another test concerns HeLa. Briefly: HeLa cell cytotoxicity, dose response, cytotoxicity control, 24 h, cherry-picked samples (AID 504726).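 Also: potency for cytotoxicity as loss of luminescence signal.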 As to conditions: Homo sapiens. The format is functional, cell-based.
Another test addresses Troponin, cardiac muscle (Homo sapiens, UniProt P19429+P45379+P63316). In words: Fluorescence-based biochemical high throughput dose response assay for activators of the calcium sensitivity of cardiac Regulated Thin Filaments (RTF). [Related pubchem assays (depositor defined):AID493008, AID493018, AID504382, AID504383]. The format is protein-complex assay.
The test system of another test is CHO. In words: cytotoxicity in TLR9-MyD88 CHO cells, dose response, cytotoxicity control for TLR9-MyD88 binding inhibitor project, cell-based, luminescence (AID 588339).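 Also: CHO cells stably coexpressing TLR9 and MyD88 fusions from primary screen; compound exposure lasted 48 hours before viability readout.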 To be noted: Cricetulus griseus. The format is functional, hamster.
The target of another test is Beta Lactamase (Pseudomonas aeruginosa, UniProt Q932Y6). Briefly: beta-lactamase reporter inhibitor potency, dose response, artefact control for TLR9-MyD88 binding inhibitor project, BLA reporter cells, FRET fluorescence (AID 588341).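 Also: cell based assay in CHO-K1 cells stably expressing beta-lactamase.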 It is filed as cell-based.
The nature of test [11]: growth suppression of PTEN-null colon cells, dose response, cell-based, HCT116 PTEN knockout (AID 1047).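 Also: HCT116 colon tumor cells with PTEN knocked out; cells exposed to compound for 60 hours before readout; potency for loss of cell viability measured by luminescence.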 It is filed as functional.
Test [12] is described as follows: growth suppression of beta-catenin-knockout colon cells, dose response, cell-based, HCT116, human colon tumor (AID 1045).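 Also: HCT116 colon tumor cells with beta catenin knocked out; cells exposed to compound for 60 hours.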 The format is functional.

Sequence of DNA topoisomerase (A0A2S9PM60 whole entry): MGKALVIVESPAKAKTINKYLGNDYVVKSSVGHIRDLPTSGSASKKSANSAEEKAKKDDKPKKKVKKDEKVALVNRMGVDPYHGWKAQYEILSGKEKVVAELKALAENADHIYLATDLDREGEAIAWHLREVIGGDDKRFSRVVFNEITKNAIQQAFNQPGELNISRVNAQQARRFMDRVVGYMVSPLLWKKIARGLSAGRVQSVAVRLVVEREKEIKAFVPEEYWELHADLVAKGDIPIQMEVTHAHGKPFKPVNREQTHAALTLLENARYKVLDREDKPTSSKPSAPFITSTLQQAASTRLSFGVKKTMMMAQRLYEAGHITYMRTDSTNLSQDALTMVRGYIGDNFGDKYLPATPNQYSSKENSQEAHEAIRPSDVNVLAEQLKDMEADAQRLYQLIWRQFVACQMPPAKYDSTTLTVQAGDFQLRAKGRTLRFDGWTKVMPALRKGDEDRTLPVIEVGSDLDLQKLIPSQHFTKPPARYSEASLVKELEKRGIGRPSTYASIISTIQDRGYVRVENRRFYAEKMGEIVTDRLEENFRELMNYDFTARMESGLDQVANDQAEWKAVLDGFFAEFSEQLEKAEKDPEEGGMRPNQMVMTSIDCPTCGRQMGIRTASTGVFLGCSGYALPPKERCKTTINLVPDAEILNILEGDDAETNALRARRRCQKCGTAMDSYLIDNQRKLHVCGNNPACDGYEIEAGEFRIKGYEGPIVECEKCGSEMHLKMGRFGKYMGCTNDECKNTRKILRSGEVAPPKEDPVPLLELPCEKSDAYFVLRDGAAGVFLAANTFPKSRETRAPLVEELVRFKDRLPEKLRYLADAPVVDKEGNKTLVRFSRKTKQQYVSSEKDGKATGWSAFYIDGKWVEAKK
Sequence of Beta Lactamase (Q932Y6 whole entry): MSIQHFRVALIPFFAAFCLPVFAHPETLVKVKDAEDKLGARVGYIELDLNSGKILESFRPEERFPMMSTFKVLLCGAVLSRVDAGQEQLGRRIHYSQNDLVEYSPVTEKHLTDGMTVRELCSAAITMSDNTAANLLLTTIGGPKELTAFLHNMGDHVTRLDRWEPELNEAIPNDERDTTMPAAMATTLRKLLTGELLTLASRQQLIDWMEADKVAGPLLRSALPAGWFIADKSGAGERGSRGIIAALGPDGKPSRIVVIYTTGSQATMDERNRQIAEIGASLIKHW
Sequence of Serine/threonine-protein phosphatase (B9W6M3 whole entry): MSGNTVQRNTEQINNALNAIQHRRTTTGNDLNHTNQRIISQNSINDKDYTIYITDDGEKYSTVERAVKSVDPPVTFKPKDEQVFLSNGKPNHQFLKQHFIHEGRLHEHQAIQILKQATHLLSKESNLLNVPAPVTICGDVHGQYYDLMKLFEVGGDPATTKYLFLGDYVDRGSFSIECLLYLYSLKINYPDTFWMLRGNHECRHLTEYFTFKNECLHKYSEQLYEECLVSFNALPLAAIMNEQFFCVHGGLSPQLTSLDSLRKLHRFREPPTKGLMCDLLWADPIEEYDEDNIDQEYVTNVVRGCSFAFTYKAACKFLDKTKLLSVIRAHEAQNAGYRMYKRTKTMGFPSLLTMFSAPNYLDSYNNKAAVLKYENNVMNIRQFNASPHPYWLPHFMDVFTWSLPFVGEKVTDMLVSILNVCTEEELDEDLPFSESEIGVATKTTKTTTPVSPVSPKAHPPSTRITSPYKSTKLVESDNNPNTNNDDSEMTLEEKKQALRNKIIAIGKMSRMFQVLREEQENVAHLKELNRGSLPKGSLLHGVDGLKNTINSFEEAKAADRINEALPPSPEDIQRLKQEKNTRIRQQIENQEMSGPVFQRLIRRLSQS
Sequence of ATP-dependent molecular chaperone HSP82 (C4YTQ8 whole entry): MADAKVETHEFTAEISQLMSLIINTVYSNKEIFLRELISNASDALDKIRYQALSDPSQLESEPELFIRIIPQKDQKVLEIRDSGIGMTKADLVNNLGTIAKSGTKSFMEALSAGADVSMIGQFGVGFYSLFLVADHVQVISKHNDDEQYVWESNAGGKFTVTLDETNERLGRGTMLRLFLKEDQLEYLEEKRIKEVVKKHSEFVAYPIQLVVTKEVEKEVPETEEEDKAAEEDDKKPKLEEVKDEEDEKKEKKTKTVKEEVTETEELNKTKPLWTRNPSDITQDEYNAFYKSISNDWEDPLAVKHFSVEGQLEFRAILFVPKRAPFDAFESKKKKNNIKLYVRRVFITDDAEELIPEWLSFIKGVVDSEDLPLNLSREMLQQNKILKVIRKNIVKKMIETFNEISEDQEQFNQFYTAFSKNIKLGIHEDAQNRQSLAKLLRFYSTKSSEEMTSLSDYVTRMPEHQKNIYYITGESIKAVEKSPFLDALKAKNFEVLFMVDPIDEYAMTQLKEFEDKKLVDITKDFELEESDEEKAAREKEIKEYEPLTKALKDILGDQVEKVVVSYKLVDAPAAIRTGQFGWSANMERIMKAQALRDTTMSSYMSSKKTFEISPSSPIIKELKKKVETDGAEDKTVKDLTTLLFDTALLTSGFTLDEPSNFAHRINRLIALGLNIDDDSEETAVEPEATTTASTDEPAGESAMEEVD

In the case of `CC(C)CN(C(=O)COC(=O)c1c2c(nc3ccccc13)CCC2)c1c(N)n(Cc2ccccc2)c(=O)[nH]c1=O`, on DNA topoisomerase, the AC50 is > 38 µM (inactive).
With `CC(C)(C)c1ccc(CSc2cnn(C(C)(C)C)c(=O)c2Cl)cc1` [PYRIDABEN], the EC50 was 103 µM (active) in test [1]; > 120 µM (not active) in test [2]; 4.13 µM (active) in test [3]; > 120 µM (not active) in test [4]; > 120 µM (not active) in test [5]; 20.8 µM (active) at Streptokinase A. Besides, the concentration giving a half-maximal response (EC50) was 0.211 µM (active) in test [6]; > 180 µM (inactive) in test [7]; 123 µM (active) in the test on Streptococcus; > 160 µM (inactive) in [8]; > 29.9 µM (inactive) in “cells”. The AC50 in [9] was < 0.26 µM (active). The IC50 at Galanin receptor type 3 is 0.00657 µM (active); in test [10] it was 0.0619 µM (active).
With `CC(C)C(=O)N1CCN(c2nc(-c3ccc(Cl)cc3)cs2)CC1`, on DNA topoisomerase, the AC50 was 1.72 µM (active).
Regarding `O=C1c2cccc3c(N4CCCCC4)ccc(c23)C(=O)N1c1cccc(O)c1`, the AC50 in the test with HeLa was 81.5 µM (active). Besides, the EC50 on Troponin, cardiac muscle was 1.83 µM (active). Besides, the IC50 in the test with CHO is > 49.7 µM (inactive); at Beta Lactamase, 5.24 µM (active).
On to `O=C(/C=C/c1cn(CC(O)CN2CCCCCC2)c2ccccc12)c1cccs1` (centres undefined), for which the EC50 was 14.1 µM (active) in test [11] and 11.9 µM (active) in test [12]. Also, the IC50 is 20.1 µM (inactive) in the test with CHO and 8.35 µM (active) at Beta Lactamase.

One may read the AC50 as the concentration giving half of the maximal activity seen. A word on the EC50: it is the concentration at which the effect is half-maximal. One may read the IC50 as the concentration that inhibits the measured activity by half.
